Measurements taken from patent US11220522B2, “Cytotoxic platinum complex, its preparation and therapeutic use” (City University of Hong Kong, priority 2016, dated 2022).
Each block holds one molecule with its values, some of them ahead of it.

Legend:
[1] = system: cisplatin-resistant A549cisR cells; experiment: MTT cytotoxicity assay, A549cisR cells
Method: (§1) Human ovarian carcinoma A2780 and cisplatin-resistant A2780cisR cells were cultured in RPMI 1640 with 10% FBS and 100 units penicillin/streptomycin. Human breast adenocarcinoma MCF-7, human colorectal carcinoma HCT116, human lung carcinoma A549, and cisplatin-resistant A549cisR cells were cultured in DMEM containing 10% FBS and 100 units penicillin/streptomycin. Human fetal lung fibroblast MRC-5 cells were cultured in MEM with 10% FBS, 1% L-glutamine, 1% non-essential amino acids, and 1% sodium pyruvate. […] All cells were incubated at 37° C. in 5% CO2.
(§2) For each of these assays, cells were seeded in 96-well plates at a certain density. For instance, A2780 cells were seeded in a 96-well plate at the density of 1,500 cells per well and incubated till the confluence reached about 30%. Cells were then treated with medium containing varying concentrations of compounds for 72 h at 37° C. in 5% CO2. […] For MTT assay, after incubation for 72 h, the medium containing compounds was replaced by FBS-free medium with 1 mg/mL MTT for 4 h incubation. DMSO was added to each well when the medium containing MTT was removed after incubation. The absorbance was measured at 570 and 630 nm. Cells incubated with medium containing 1% DMF only were used as controls. The seeded cell density for A549, MCF-7 and HCT116 was 1,500 cells/well, and for A2780cisR, A549cisR, and MRC-5 was 2,500 cells were seeded to each well. The absorbance was tested at 570 and 630 nm.
(§3) Values are the average of the 96-wells for each tested compound, and the reported errors are the corresponding standard deviations.

[2] = system: cisplatin-resistant A2780cisR cells; experiment: MTT cytotoxicity assay, A2780cisR cells
Method: as §1, §2, §3

[3] = MTT cytotoxicity assay, MRC-5 normal cells; conditions: human, MRC-5 fetal lung fibroblast cells (normal cells)
Method: as §1, §2, §3

[4] = system: human colorectal carcinoma HCT116 cells; experiment: MTT cytotoxicity assay, HCT116 cells; type: cell-based; conditions: maximum over the cells tested (HCT116)
Method: The absorbance was measured at 570 and 630 nm. […].

[5] = system: Human breast adenocarcinoma MCF-7 cells
Method: Human breast adenocarcinoma MCF-7, human colorectal carcinoma HCT116, human lung carcinoma A549, and cisplatin-resistant A549cisR cells were cultured in DMEM containing 10% FBS and 100 units penicillin/streptomycin. […] All cells were incubated at 37° C. in 5% CO2.
as §2, §3

[6] = system: cisplatin-resistant A549cisR cells
Method: as §1, §2, §3

[7] = system: Human fetal lung fibroblast MRC-5 cells
Method: as §1, §2, §3

[8] = system: Human ovarian carcinoma A2780 cells
Method: as §1
(§4) For each of these assays, cells were seeded in 96-well plates at a certain density. For instance, A2780 cells were seeded in a 96-well plate at the density of 1,500 cells per well and incubated till the confluence reached about 30%. Cells were then treated with medium containing varying concentrations of compounds for 72 h at 37° C. in 5% CO2. […] For MTT assay, after incubation for 72 h, the medium containing compounds was replaced by FBS-free medium with 1 mg/mL MTT for 4 h incubation. DMSO was added to each well when the medium containing MTT was removed after incubation. The absorbance was measured at 570 and 630 nm. Cells incubated with medium containing 1% DMF only were used as controls. […] The absorbance was tested at 570 and 630 nm. […]

[9] = system: cisplatin-resistant A2780cisR cells
Method: as §1, §2, §3

[10] = system: human lung carcinoma A549 cells
Method: as §1, §4

Molecule: N.N.[Cl][Pt][Cl] [cDDP, cis-diamminedichloroplatinum]
RF (Resistant Factor) ([1]; IC50 in A549cisR/IC50 in A549 cells): 4.3
RF (Resistant Factor) ([2]; IC50 in A2780CisR/IC50 in A2780 cells): 16

Molecule: [NH2][Pt]([NH2])([Cl])([Cl])([O]C(=O)COc1ccc(/C=C/C(=O)c2ccc(Cl)c(Cl)c2)cc1)[O]C(=O)COc1ccc(/C=C/C(=O)c2ccc(Cl)c(Cl)c2)cc1 [chalcoplatin]
IC50 at 72 h [3]: 9 ± 0.4 µM

Molecule: [NH2][Pt]([NH2])([OH])([Cl])([Cl])[O]C(=O)COc1ccc(/C=C/C(=O)c2ccc(Cl)c(Cl)c2)cc1 [monochalcoPt(IV)]
IC50 (cytotoxicity, MTT assay) ([1]; A549cisR cells, 72 h drug treatment): nanomolar
IC50 (cytotoxicity, MTT assay) ([2]; A2780cisR cells, 72 h drug treatment): nanomolar
IC50 at 72 h [3]: 0.11 ± 0.03 µM
fold increase in cytotoxicity compared with cisplatin [4]: ≤ 422 fold

IC50 [5]: > 50 µM
IC50 [6]: > 40 µM
IC50 [7]: 65.1 ± 9 µM
IC50 [8]: > 35 µM
IC50 [9]: > 35 µM
IC50 [10]: > 40 µM
Molecule: Chalcone
